# Test results: PubChem BioAssay (NCI)
# Several values for one entry are separate records, joined by “and”; a condition that tells them apart may be missing. Identical values can stand only once.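 In this assay, cells in 96-well plates receive the compound at five concentrations for 48 hours. Endpoints are linearly interpolated between the surrounding concentrations. Here, GI50 denotes the concentration required for 50% inhibition of growth. At the TGI there is no net growth.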
# What was measured:
# Assay in all cases: growth of human tumour cells (NCI), 48 h
# [1] = system: OVCAR-3 ovarian
# [2] = system: MALME-3M melanoma
# [3] = system: MDA-MB-231 breast
# [4] = system: ACHN renal
# [5] = system: T-47D breast
# [6] = system: IGROV1 ovarian
# [7] = system: HCT-116 colon
# [8] = system: PC-3 prostate
# [9] = system: SNB-75 CNS
# [10] = system: RXF 393 renal
Compound,GI50 [1],TGI [1],GI50 [2],TGI [2],GI50 [3],TGI [3],GI50 [4],TGI [4],GI50 [5],TGI [5],GI50 [6],TGI [6],GI50 [7],TGI [7],GI50 [8],TGI [8],GI50 [9],TGI [9],GI50 [10],TGI [10]
O=C(/C=C\c1cc(Br)ccc1O)/C=C/c1cc(Br)ccc1O,0.351 µM,1.13 µM,1.5 µM,3.08 µM,0.372 µM,4.07 µM,0.661 µM,2.05 µM,0.635 µM,4.94 µM,1.6 µM,3.62 µM,0.345 µM,1.26 µM,0.63 µM,3.08 µM,1.34 µM,2.8 µM,0.348 µM,1.41 µM
COc1ccc(/C(=C/c2ccc3ccccc3c2)c2nn[nH]n2)cc1OC,1.69 µM,7.87 µM,3.08 µM,> 100 µM,12.5 µM,> 100 µM,11.3 µM,> 100 µM,28.2 µM,> 100 µM,4.23 µM,> 100 µM,2.42 µM,> 100 µM,2.36 µM,> 100 µM,2.51 µM,> 100 µM,2.48 µM,9.07 µM
CS(=O)(=O)O[C@H]1C(=O)N(c2cc3c4ccccc4ccc3c3ccccc23)[C@@H]1c1ccccn1,0.411 µM,14.9 µM,,,1.07 µM,14 µM,0.877 µM,> 100 µM,0.44 µM,> 100 µM,2.14 µM,> 100 µM,0.372 µM,23 µM,0.399 µM,> 100 µM,0.248 µM,> 100 µM,0.242 µM,0.878 µM
COc1ccc2nc3cc(Cl)ccc3c(NCCNCC(O)CO)c2c1 (stereo not drawn),1.81 µM,8.55 µM,1.72 µM,5.93 µM,1.25 µM,5.83 µM,2.27 µM,13.3 µM,1.4 µM,6.86 µM,1.7 µM,11.7 µM,0.391 µM,2.83 µM,2.34 µM,10.7 µM,1.14 µM,11.1 µM,1.66 µM,4.75 µM
Cc1cc(O[C@@H]2O[C@@H](C)[C@H](O)[C@@H](O)[C@H]2O)c2c3c(c(O[C@@H]4O[C@@H](C)[C@H](O)[C@@H](O)[C@H]4O)cc2c1)C(=O)c1c(O)cccc1C3=O,> 30 µM,> 30 µM,> 30 µM,> 30 µM,> 30 µM,> 30 µM,> 30 µM,> 30 µM,> 30 µM,> 30 µM,> 30 µM,> 30 µM,> 30 µM,> 30 µM,> 30 µM,> 30 µM,> 30 µM,> 30 µM,> 30 µM,> 30 µM
O=c1c2cccc(F)c2sc2c(NCCCNCCO)nc3ccccc3c12,1.7 µM,3.12 µM,1.61 µM,3.12 µM,1.26 µM,2.65 µM,1.28 µM,2.54 µM,1.76 µM,4.1 µM,1.23 µM,2.65 µM,1.39 µM,2.78 µM,1.66 µM,3.31 µM,1.56 µM,2.99 µM,1.37 µM,2.73 µM
Clc1ccc(-c2nc3c(-c4ccccc4)nc(-c4ccccc4)cn3c2-c2ccc(Cl)cc2)cc1,> 100 µM,> 100 µM,> 100 µM,> 100 µM,> 100 µM,> 100 µM,> 100 µM,> 100 µM,> 100 µM,> 100 µM,> 100 µM,> 100 µM,> 100 µM,> 100 µM,> 100 µM,> 100 µM,91.4 µM,> 100 µM,> 100 µM,> 100 µM
NC(CP(=O)(O)O)C(=O)O (stereo not drawn),,> 100 µM,,> 100 µM,,> 100 µM,,> 100 µM,,> 100 µM,,> 100 µM,,> 100 µM,,> 100 µM,,> 100 µM,,> 100 µM
[N-]=[N+]=NCCCn1c2c(c3ccc([N+](=O)[O-])cc3c1=O)C(=O)c1cc(I)ccc1-2,18.3 µM,> 100 µM,12.5 µM,77 µM,> 100 µM,> 100 µM,2.25 µM,7.5 µM,3.87 µM,> 100 µM,1.95 µM,65.5 µM,2.15 µM,26.4 µM,11 µM,> 100 µM,8.63 µM,> 100 µM,12.5 µM,62.8 µM
COC(=O)CC1C2(C)C3=C(C)C(c4ccoc4)CC3OC2C2OC(=O)C3(C)C=CC(=O)C1(C)C23 (stereo not drawn),,7.56 µM,,2.48 µM,,2.81 µM,,2.52 µM,,2.92 µM,,3.29 µM,,2.28 µM,,3.43 µM,,12.3 µM,,3 µM
CC(C)(C)[Si](C)(C)OC1[C@@H](O[Si](C)(C)C(C)(C)C)[C@@H](CNC(=O)NC(=O)NC(=O)CCl)O[C@H]1n1cnc2c(NC(=O)Nc3ccccc3)ncnc21 (stereo partly drawn),1.82 µM,4.87 µM,1.34 µM,3.64 µM,1.31 µM,3.76 µM,5.03 µM,12.2 µM,8.59 µM,17.5 µM,0.361 µM,1.33 µM,1.85 µM,7.41 µM,1.1 µM,3.93 µM,5.84 µM,13.9 µM,2.13 µM,6.88 µM
CN(C)c1ccc(/C=C(\C#N)c2ccccc2)cc1,0.272 µM and 0.398 µM and 0.365 µM,1.22 µM and 3.23 µM and 4.25 µM,2.58 µM and 18 µM,> 100 µM,1.66 µM and 1.97 µM,78.4 µM and 76.7 µM,0.901 µM and 0.688 µM and 1.37 µM,> 100 µM,0.446 µM and 0.534 µM and 0.473 µM,> 100 µM,0.599 µM and 1.81 µM,> 100 µM,0.384 µM and 0.441 µM and 0.414 µM,> 60.6 µM and > 100 µM and 29.6 µM,0.272 µM and 1.92 µM and 0.956 µM,> 100 µM,0.361 µM and 0.626 µM and 0.299 µM,> 100 µM,0.394 µM and 0.662 µM and 0.817 µM,3.09 µM and 5.77 µM
Nc1c(C(=O)c2ccc(C#CCN3CCOCC3)cc2)cnn1-c1ccc(F)cc1,> 25 µM,> 25 µM,> 25 µM,> 25 µM,> 25 µM,> 25 µM,> 25 µM,> 25 µM,> 25 µM,> 25 µM,> 25 µM,> 25 µM,> 25 µM,> 25 µM,> 25 µM,> 25 µM,> 25 µM,> 25 µM,> 25 µM,> 25 µM
CCCCOC(=O)/C=C\C(=O)NC(N)=O,13 µM,26.2 µM,14.7 µM,34.5 µM,17.9 µM,42.6 µM,15.3 µM,30.3 µM,14.5 µM,95.5 µM,20.4 µM,54.3 µM,13.4 µM,27.8 µM,25 µM,69.7 µM,18 µM,74.9 µM,12.7 µM,27.1 µM
COc1cc(-c2cc(-c3cccs3)c(C#N)c(N3CCOCC3)n2)cc(OC)c1OC,14.9 µM,> 88.9 µM,3.66 µM,> 100 µM,5.83 µM,> 100 µM,6.45 µM,> 100 µM,3.32 µM,> 85.3 µM,13.7 µM,> 100 µM,4.14 µM,> 100 µM,5.29 µM,> 100 µM,10 µM,> 63 µM,3.47 µM,> 62.8 µM
CC(C)n1nc(C#Cc2cccc(O)c2)c2c(N)ncnc21,1.32 µM and 1.7 µM,5.62 µM and 7.63 µM,0.248 µM and 0.234 µM,1.38 µM and 0.917 µM,0.508 µM and 0.0966 µM,2.07 µM and 2.15 µM,1.05 µM and 0.461 µM,4.18 µM and 3.96 µM,1.01 µM and 0.864 µM,3.38 µM and 4.09 µM,0.856 µM,2.24 µM,1.17 µM and 0.586 µM,7.78 µM and 10.8 µM,1.37 µM and 1.18 µM,12.3 µM and 13.9 µM,0.161 µM and 0.442 µM,1.12 µM and 2.09 µM,1.15 µM and 0.481 µM,4.2 µM and 1.5 µM
COc1ccc(N=N/C(=N\NC(=O)c2cc(Br)ccc2O)c2ccc(N(CCC#N)CCC#N)cc2OC)cc1,51.4 µg/mL,> 150 µg/mL,68.2 µg/mL,> 150 µg/mL,70.8 µg/mL,> 150 µg/mL,85.7 µg/mL,> 150 µg/mL,72.5 µg/mL,> 150 µg/mL,39.6 µg/mL,> 150 µg/mL,60.6 µg/mL,> 150 µg/mL,57.6 µg/mL,> 150 µg/mL,27.6 µg/mL,86.8 µg/mL,50.2 µg/mL,> 150 µg/mL
Nc1nc(=S)c2ncn(C3OC(CO)C(O)C3O)c2[nH]1 (stereo not drawn),0.851 µM,,1.2 µM,31.1 µM,1.39 µM,> 100 µM,0.944 µM,42.6 µM,0.511 µM,83.3 µM,3.77 µM,> 35.5 µM,0.347 µM,,2.34 µM,> 100 µM,0.688 µM,> 100 µM,34.7 µM,> 100 µM
Cc1ccc(/C=C(/C#N)n2nnc3ncccc32)cc1,0.801 µM,3.74 µM,1.76 µM,26 µM,2.41 µM,8.44 µM,2.66 µM,13.4 µM,1.92 µM,15.8 µM,2.28 µM,21.5 µM,2.2 µM,11.1 µM,4.18 µM,21.2 µM,2.98 µM,> 100 µM,1.54 µM,6.54 µM
O=C(Nc1ccc(Oc2ccc(NC(=O)Nc3ccccc3Cl)cc2)cc1)Nc1ccccc1Cl,11.3 µM,> 55 µM,15.4 µM,> 96 µM,9.4 µM,29.6 µM,> 22.2 µM,> 100 µM,6.98 µM,> 90.6 µM,3.57 µM,14.8 µM,1.59 µM,> 100 µM,2.11 µM,,12.2 µM,37.3 µM,2.99 µM,11.4 µM
CCSc1nc(NC(C)c2ccccc2)c2cnn(CO)c2n1 (stereo not drawn),64.7 µM,> 100 µM,29.6 µM,84.9 µM,61.8 µM,> 100 µM,76 µM,> 100 µM,> 100 µM,> 100 µM,> 100 µM,> 100 µM,> 100 µM,> 100 µM,38.5 µM,> 100 µM,> 100 µM,> 100 µM,91.5 µM,> 100 µM
CCCCCCCCCCCCNC(=O)N[C@H](C(=O)N[C@H]1/C=C/CCNC(=O)/C=C/[C@H](C)NC1=O)C(C)C,0.0566 µM,0.935 µM,0.422 µM,2.99 µM,0.0709 µM,0.277 µM,1.87 µM,> 100 µM,0.144 µM,0.36 µM,0.06 µM,2.24 µM,0.0365 µM,0.163 µM,0.0154 µM,0.0665 µM,0.0345 µM,0.155 µM,0.0166 µM,0.0405 µM
COc1cc(N2CCN(C(C)C)CC2)ccc1Nc1nc(Nc2ccc(F)cc2C(=O)NCC(O)CO)c2cc[nH]c2n1 (stereo not drawn),> 25 µM,> 25 µM,4.65 µM,> 25 µM,13.6 µM,> 25 µM,> 25 µM,> 25 µM,7.52 µM,> 25 µM,11.1 µM,> 25 µM,1.69 µM,> 25 µM,> 25 µM,> 25 µM,13.3 µM,> 25 µM,11.4 µM,> 25 µM
Cc1ccc(S(=O)(=O)OCC(=O)Nc2ccc(C(=O)O)c(O)c2)cc1,19.3 µM,44.5 µM,32.3 µM,115 µM,25.9 µM,99.6 µM,43.1 µM,159 µM,43.2 µM,133 µM,18 µM,92.3 µM,20.5 µM,69 µM,30.4 µM,131 µM,47.3 µM,185 µM,16.5 µM,85 µM
CN1C(=O)/C(=C2\S/C(=N\c3nnc(-c4ccccc4)o3)NC2=O)c2ccccc21,> 100 µM,> 100 µM,,,> 100 µM,> 100 µM,> 100 µM,> 100 µM,> 100 µM,> 100 µM,59.9 µM,> 100 µM,92.4 µM,> 100 µM,> 100 µM,> 100 µM,> 100 µM,> 100 µM,> 100 µM,> 100 µM
